The experiment relates to MCF-7 cells. The experiment is described as follows: In vitro test of cell activity (MCF-7 cells, insulin stimulation, ELISA-One fluorescence). In kind it is cell-based. As to conditions: Homo sapiens, MCF7, MCF-7 cells; for inhibition at 0.5 µM: conc. 0.5 μM; for inhibition at 1 µM: conc. 1 μM; for inhibition at 0.25 µM: conc. 0.25 μM. The gist of the method:
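Fluorescence ELISA-One read-out on cell lysates, antibody-captured 1 h at room temperature. Before lysis, MCF-7 cells (2.5×10^4/well) were pretreated 2 h with compound in serum-free medium, single dose for screening or a dilution series for IC50, then stimulated 30 min with insulin ([…] final).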

Read-outs that look alike come from different tables or passages of the source.

In the case of `COc1ncc(-c2ccc3nccc(=O)n3n2)cc1NS(=O)(=O)c1ccc(F)cc1Cl` [compound 78], the inhibition at 0.5 µM reads like this: (read-out: % inhibition AKT) 72.6%; (read-out: % inhibition p70s6k) 32.6%.

In the case of `COc1ncc(-c2ccc3nccc(=O)n3n2)cc1NS(=O)(=O)c1c(F)cccc1F` [compound 73], the inhibition at 0.5 µM is, setting by setting: (read-out: % inhibition AKT) 40.5%; (read-out: % inhibition p70s6k) -2.1%.

As for `COc1ncc(-c2ccc3ncc(Cl)c(=O)n3c2)cc1NS(=O)(=O)c1ccccc1` [compound 142], the inhibition at 0.5 µM by setting is: (read-out: % inhibition AKT) 94.8%; (read-out: % inhibition p70s6k) 90.8%. The IC50 was ≤ 50 nM (read-out: IC50 p-AKT) and 50 to 100 nM (read-out: IC50 p-p70S6K).

As to `COc1ncc(-c2ccc3nccc(=O)n3c2C)cc1NS(=O)(=O)c1cccc(F)c1` [compound 53], the inhibition at 0.5 µM is 68% (read-out: % inhibition AKT) and 40.9% (read-out: % inhibition p70s6k).

As for `COc1ncc(-c2ccc3nccc(=O)n3c2)cc1NS(=O)(=O)C1CC1` [compound 9], the inhibition at 1 µM turned out to be 76% (read-out: % inhibition AKT) and 38.4% (read-out: % inhibition p70s6k).

Consider `COc1ncc(-c2ccc3nc(C)cc(=O)n3c2)cc1NS(=O)(=O)c1ccccc1F` [compound 230], for which the inhibition at 0.5 µM amounted to 43.5% (read-out: % inhibition AKT) and 8.8% (read-out: % inhibition p70s6k).

On to `COc1ncc(-c2ccc3ncc(Cl)c(=O)n3c2)cc1NS(=O)(=O)c1cnc(Cl)s1` [compound 160], for which the inhibition at 0.25 µM reads like this: (read-out: % inhibition AKT) 61.9%; (read-out: % inhibition p70s6k) 71.6%.

For the molecule `COc1ncc(-c2cn3c(=O)ccnc3cc2C)cc1NS(=O)(=O)c1ccccc1Cl` [compound 122], the inhibition at 0.5 µM runs as follows: (read-out: % inhibition AKT) -26.6%; (read-out: % inhibition p70s6k) 1.2%.

For the molecule `COCCOc1cnc2ccc(-c3ccc(OC)c(NS(=O)(=O)c4ccc(F)cc4F)c3)cn2c1=O` [compound 205], the IC50 (read-out: IC50 p-AKT) fell in the range of 50 to 100 nM.

As to `COc1ncc(-c2ccc3ncc(OCC4CCOC4)c(=O)n3c2)cc1NS(=O)(=O)c1sc(C)nc1C` (stereo not shown) [compound 200], under “read-out: IC50 p-AKT”, the IC50 was ≤ 50 nM.

For `COc1ncc(-c2ccc3nccc(=O)n3n2)cc1NS(=O)(=O)c1ccc(C#N)cc1` [compound 77], the inhibition at 0.5 µM turned out to be 50% (read-out: % inhibition AKT) and 4.8% (read-out: % inhibition p70s6k).

As for `COc1ncc(-c2ccc3ncc(Cl)c(=O)n3c2)cc1NS(=O)(=O)c1c(F)cccc1F` [compound 148], the inhibition at 0.25 µM by setting is: (read-out: % inhibition AKT) 88.9%; (read-out: % inhibition p70s6k) 86.3%. The IC50 is, setting by setting: (read-out: IC50 p-AKT) 50 to 100 nM; (read-out: IC50 p-p70S6K) 50 to 100 nM.

As for `COCOc1cnc2ccc(-c3cnc(OC)c(NS(=O)(=O)c4sc(N)nc4C)c3)cn2c1=O` [compound 184], the IC50 (read-out: IC50 p-AKT) is 50 to 100 nM.

With `CCc1cc(F)ccc1S(=O)(=O)Nc1cc(-c2ccc3ncc(OCCOC)c(=O)n3c2)cnc1OC` [compound 280], the IC50 (read-out: IC50 p-AKT) is ≤ 50 nM.

For `COCCOc1cnc2ccc(-c3cnc(OC)c(NS(=O)(=O)c4sccc4C)c3)cn2c1=O` [compound 182], the IC50 (read-out: IC50 p-AKT) is > 250 nM.

Regarding `COc1ncc(-c2ccc3ncc(Cl)c(=O)n3c2)cc1NS(=O)(=O)c1ccc(F)cc1` [compound 146], the inhibition at 0.25 µM reads like this: (read-out: % inhibition AKT) 77.6%; (read-out: % inhibition p70s6k) 83.7%.

For `COc1ncc(-c2ccc3nccc(=O)n3c2)cc1NS(=O)(=O)c1ccccc1` [compound 12], the inhibition at 1 µM amounted to 95.4% (read-out: % inhibition AKT) and 91.5% (read-out: % inhibition p70s6k). Also, the IC50 (read-out: IC50 p-AKT) was 50 to 100 nM and the IC50 (read-out: IC50 p-p70S6K) lay within 100 to 250 nM.

As to `COc1ncc(-c2cn3c(=O)ccnc3cc2C)cc1NS(=O)(=O)c1c(F)cccc1F` [compound 125], the inhibition at 0.5 µM (read-out: % inhibition AKT) came out at 23.5% and the inhibition at 0.5 µM (read-out: % inhibition p70s6k) was 5%.

As for `Cc1ncc(-c2ccc3nccc(=O)n3c2)cc1NS(=O)(=O)c1ccccc1F` [compound 10], the inhibition at 1 µM reads like this: (read-out: % inhibition AKT) 81.9%; (read-out: % inhibition p70s6k) 27.8%.

Take `COc1ncc(-c2ccc3nc(C)cc(=O)n3c2)cc1NS(=O)(=O)c1ccc(F)cc1Cl` [compound 222]: the inhibition at 0.25 µM runs as follows: (read-out: % inhibition AKT) -26.7%; (read-out: % inhibition p70s6k) 2%.

Regarding `COc1ncc(-c2ccc3ncc(N)c(=O)n3c2)cc1NS(=O)(=O)c1ccccc1Cl` [compound 91], the inhibition at 0.5 µM came to 94.6% (read-out: % inhibition AKT) and 89.2% (read-out: % inhibition p70s6k). Moreover, the IC50 reads like this: (read-out: IC50 p-AKT) ≤ 50 nM; (read-out: IC50 p-p70S6K) 50 to 100 nM.

`COc1ncc(-c2ccc3ncc(OC)c(=O)n3c2)cc1NS(=O)(=O)c1sc(C)nc1C` [compound 111]: the IC50 (read-out: IC50 p-AKT) is ≤ 50 nM.

As to `COc1ncc(-c2ccc3ncc(Cl)c(=O)n3c2)cc1NS(=O)(=O)c1c(C)noc1C` [compound 166], the inhibition at 0.25 µM is, setting by setting: (read-out: % inhibition AKT) 66.5%; (read-out: % inhibition p70s6k) 89.2%. Moreover, the IC50 by setting is: (read-out: IC50 p-AKT) 100 to 250 nM; (read-out: IC50 p-p70S6K) 100 to 250 nM.

Regarding `COCCOc1cnc2ccc(-c3cnc(OC)c(NS(=O)(=O)c4ccc(OC)nc4C)c3)cn2c1=O` [compound 187], the IC50 (read-out: IC50 p-AKT) was ≤ 50 nM.

Turning to `COc1ncc(-c2ccc3ncc(OCC(C)(C)OC)c(=O)n3c2)cc1NS(=O)(=O)c1sc(C)nc1C` [compound 209], where the note is “read-out: IC50 p-AKT”, the IC50 is ≤ 50 nM.

Regarding `COc1ncc(-c2ccc3nccc(=O)n3c2)cc1NS(=O)(=O)c1ccc(C(F)(F)F)cc1` [compound 22], the inhibition at 1 µM by setting is: (read-out: % inhibition AKT) 94.5%; (read-out: % inhibition p70s6k) 94%. Besides, the IC50 by setting is: (read-out: IC50 p-AKT) ≤ 50 nM; (read-out: IC50 p-p70S6K) 100 to 250 nM.

In the case of `COc1ncc(-c2ccc3ncc(F)c(=O)n3c2)cc1NS(=O)(=O)c1c(F)cccc1F` [compound 68], the inhibition at 0.5 µM turned out to be 88% (read-out: % inhibition AKT) and 90.3% (read-out: % inhibition p70s6k). Moreover, the half-inhibitory concentration (IC50) runs as follows: (read-out: IC50 p-AKT) ≤ 50 nM; (read-out: IC50 p-p70S6K) 50 to 100 nM.

As to `COc1ncc(-c2ccc3nccc(=O)n3c2)cc1NS(=O)(=O)c1cc(F)ccc1F` [compound 4], the inhibition at 1 µM turned out to be 95.6% (read-out: % inhibition AKT) and 50.8% (read-out: % inhibition p70s6k). Further, the IC50 reads like this: (read-out: IC50 p-AKT) ≤ 50 nM; (read-out: IC50 p-p70S6K) 100 to 250 nM.

With `COc1ncc(-c2ccc3ncc(OCCO)c(=O)n3c2)cc1NS(=O)(=O)c1ccc(F)cc1F` [compound 178], the IC50 (read-out: IC50 p-AKT) was in the range of 50 to 100 nM.

Take `COc1ncc(-c2ccc3nccc(=O)n3n2)cc1NS(=O)(=O)c1cc(F)ccc1F` [compound 76]: the inhibition at 0.5 µM by setting is: (read-out: % inhibition AKT) 54.3%; (read-out: % inhibition p70s6k) 12.2%.

`COc1ncc(-c2ccc3ncc(Cl)c(=O)n3c2)cc1NS(=O)(=O)c1cnc(C)n1C` [compound 154]: the inhibition at 0.25 µM was 85.4% (read-out: % inhibition AKT) and 92.6% (read-out: % inhibition p70s6k). The IC50 lay within 100 to 250 nM (read-out: IC50 p-AKT) and 50 to 100 nM (read-out: IC50 p-p70S6K).

Take `COc1ncc(-c2ccc3ncc(Cl)c(=O)n3c2)cc1NS(=O)(=O)c1cnc(C)s1` [compound 156]: the inhibition at 0.25 µM by setting is: (read-out: % inhibition AKT) 77.9%; (read-out: % inhibition p70s6k) 74.1%. The IC50 by setting is: (read-out: IC50 p-AKT) 50 to 100 nM; (read-out: IC50 p-p70S6K) 100 to 250 nM.

In the case of `COc1ncc(-c2ccc3nccc(=O)n3c2)cc1CS(=O)(=O)c1ccc(F)cc1F` [compound 5], the inhibition at 1 µM runs as follows: (read-out: % inhibition AKT) 26%; (read-out: % inhibition p70s6k) 12.3%.

With `CCc1ncc(-c2ccc3nccc(=O)n3c2)cc1NS(=O)(=O)c1ccc(F)cc1F` [compound 18], the inhibition at 1 µM stood at 85.7% (read-out: % inhibition AKT) and 46.2% (read-out: % inhibition p70s6k).

As to `COc1ncc(-c2ccc3ncc(O)c(=O)n3c2)cc1NS(=O)(=O)c1ccccc1Cl` [compound 102], the inhibition at 0.25 µM runs as follows: (read-out: % inhibition AKT) 37.3%; (read-out: % inhibition p70s6k) 18.2%.

`COc1ncc(-c2ccc3ncc(OCC4COC4)c(=O)n3c2)cc1NS(=O)(=O)c1cccc(C)c1` [compound 248]: the IC50 (read-out: IC50 p-AKT) is 50 to 100 nM.
